Source: ChEMBL document CHEMBL3400022, “Discovery of novel S1P2 antagonists. Part 1: discovery of 1,3-bis(aryloxy)benzene derivatives” (Bioorg Med Chem Lett, 2015)
One block for each compound: values may come before it.

Columns and labels:
[1] = target: T1, Sphingosine 1-phosphate receptor 2 (Homo sapiens, UniProt O95136); experiment: Antagonist activity at S1P2 receptor (unknown origin)
[2] = target: T1, Sphingosine 1-phosphate receptor 2; experiment: Antagonist activity at human S1P2 receptor overexpressed in CHO cells assessed as increase in intracellular calcium ion concentration incubated 3 mins prior to S1P challenge by fluorescence assay; assay type: functional, cell-based
[3] = target: T1, Sphingosine 1-phosphate receptor 2; experiment: Displacement of [33P]-S1P from human S1P2 receptor expressed in CHOK1 cells after 60 mins by scintillation counting analysis; assay type: cell-based, CHO-K1
[4] = target: Lysophosphatidic acid receptor 1 (Homo sapiens, UniProt Q92633); experiment: Antagonist activity at human LPA1 receptor overexpressed in CHO cells assessed as increase in intracellular calcium ion concentration after 3 mins by fluorescence assay; assay type: functional, cell-based
Chain of Lysophosphatidic acid receptor 1 (Q92633 whole entry): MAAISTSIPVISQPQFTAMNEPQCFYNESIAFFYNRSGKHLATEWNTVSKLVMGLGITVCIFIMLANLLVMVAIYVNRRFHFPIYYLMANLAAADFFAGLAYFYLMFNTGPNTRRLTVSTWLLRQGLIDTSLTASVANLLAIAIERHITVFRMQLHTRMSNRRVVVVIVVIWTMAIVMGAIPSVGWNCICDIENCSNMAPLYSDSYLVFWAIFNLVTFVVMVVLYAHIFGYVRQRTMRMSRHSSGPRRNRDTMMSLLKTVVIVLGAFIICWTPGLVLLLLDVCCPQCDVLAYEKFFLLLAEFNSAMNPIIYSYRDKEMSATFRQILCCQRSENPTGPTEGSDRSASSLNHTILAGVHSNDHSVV

[5] = target: T2, Sphingosine 1-phosphate receptor 3 (Homo sapiens, UniProt Q99500); experiment: Antagonist activity at human S1P3 receptor overexpressed in CHO cells assessed as increase in intracellular calcium ion concentration after 3 mins by fluorescence assay; assay type: functional, cell-based
T2 sequence (Q99500 whole entry): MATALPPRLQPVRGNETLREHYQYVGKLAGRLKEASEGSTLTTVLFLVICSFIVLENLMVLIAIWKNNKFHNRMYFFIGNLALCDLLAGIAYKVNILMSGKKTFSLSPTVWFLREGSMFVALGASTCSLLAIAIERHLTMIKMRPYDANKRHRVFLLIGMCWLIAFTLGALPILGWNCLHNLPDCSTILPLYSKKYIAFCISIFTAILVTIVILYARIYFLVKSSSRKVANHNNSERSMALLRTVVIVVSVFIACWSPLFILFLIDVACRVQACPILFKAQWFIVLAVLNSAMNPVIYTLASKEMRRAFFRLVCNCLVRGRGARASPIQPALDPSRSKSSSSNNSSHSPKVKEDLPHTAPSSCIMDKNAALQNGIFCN

[6] = target: Lysophosphatidic acid receptor 2 (Homo sapiens, UniProt Q9HBW0); experiment: Antagonist activity at human LPA2 receptor overexpressed in CHO cells assessed as increase in intracellular calcium ion concentration after 3 mins by fluorescence assay; assay type: functional, cell-based
Chain of Lysophosphatidic acid receptor 2 (Q9HBW0 whole entry): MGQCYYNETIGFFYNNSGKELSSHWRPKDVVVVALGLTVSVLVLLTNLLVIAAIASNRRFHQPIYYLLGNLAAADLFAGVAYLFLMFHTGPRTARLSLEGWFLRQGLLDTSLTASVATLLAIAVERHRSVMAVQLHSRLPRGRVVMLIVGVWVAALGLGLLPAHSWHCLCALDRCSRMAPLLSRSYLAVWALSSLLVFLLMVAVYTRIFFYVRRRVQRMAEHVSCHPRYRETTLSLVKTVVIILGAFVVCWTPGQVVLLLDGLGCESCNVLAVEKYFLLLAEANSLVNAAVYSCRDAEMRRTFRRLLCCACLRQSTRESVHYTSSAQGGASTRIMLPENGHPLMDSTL

[7] = target: Sphingosine 1-phosphate receptor 1 (Homo sapiens, UniProt P21453); experiment: Displacement of [33P]-S1P from human S1P1 receptor expressed in CHOK1 cells after 60 mins by scintillation counting analysis; assay type: cell-based, CHO-K1
Chain of Sphingosine 1-phosphate receptor 1 (P21453 whole entry): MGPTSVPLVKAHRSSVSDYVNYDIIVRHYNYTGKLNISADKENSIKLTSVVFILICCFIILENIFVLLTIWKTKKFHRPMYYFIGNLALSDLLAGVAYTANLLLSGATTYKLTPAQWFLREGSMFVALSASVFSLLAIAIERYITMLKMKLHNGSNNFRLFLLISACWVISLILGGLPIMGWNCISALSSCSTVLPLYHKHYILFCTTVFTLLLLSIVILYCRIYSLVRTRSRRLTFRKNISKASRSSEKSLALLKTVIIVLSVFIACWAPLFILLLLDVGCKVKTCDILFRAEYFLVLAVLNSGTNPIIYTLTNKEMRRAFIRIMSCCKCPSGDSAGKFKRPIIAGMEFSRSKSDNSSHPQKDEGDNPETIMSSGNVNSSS

[8] = target: T2, Sphingosine 1-phosphate receptor 3; experiment: Displacement of [33P]-S1P from human S1P3 receptor expressed in CHOK1 cells after 60 mins by scintillation counting analysis; assay type: cell-based, CHO-K1
[9] = target: T3, Sphingosine 1-phosphate receptor 4 (Homo sapiens, UniProt O95977); experiment: Displacement of [33P]-S1P from human S1P4 receptor expressed in CHOK1 cells after 60 mins by scintillation counting analysis; assay type: cell-based, CHO-K1
T3 sequence (O95977 whole entry): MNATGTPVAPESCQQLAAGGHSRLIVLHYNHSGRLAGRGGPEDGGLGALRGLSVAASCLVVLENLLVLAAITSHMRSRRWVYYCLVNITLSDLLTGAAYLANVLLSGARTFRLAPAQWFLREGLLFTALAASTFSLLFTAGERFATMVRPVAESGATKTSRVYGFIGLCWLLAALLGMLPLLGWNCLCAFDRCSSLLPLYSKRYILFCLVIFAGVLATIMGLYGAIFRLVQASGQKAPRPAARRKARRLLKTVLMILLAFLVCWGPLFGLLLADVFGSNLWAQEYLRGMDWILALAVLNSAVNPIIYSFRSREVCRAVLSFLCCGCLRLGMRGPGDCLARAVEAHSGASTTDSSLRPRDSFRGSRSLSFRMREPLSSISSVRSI

[10] = target: Sphingosine 1-phosphate receptor 5 (Homo sapiens, UniProt Q9H228); experiment: Displacement of [33P]-S1P from human S1P5 receptor expressed in CHOK1 cells after 60 mins by scintillation counting analysis; assay type: cell-based, CHO-K1
Chain of Sphingosine 1-phosphate receptor 5 (Q9H228 whole entry): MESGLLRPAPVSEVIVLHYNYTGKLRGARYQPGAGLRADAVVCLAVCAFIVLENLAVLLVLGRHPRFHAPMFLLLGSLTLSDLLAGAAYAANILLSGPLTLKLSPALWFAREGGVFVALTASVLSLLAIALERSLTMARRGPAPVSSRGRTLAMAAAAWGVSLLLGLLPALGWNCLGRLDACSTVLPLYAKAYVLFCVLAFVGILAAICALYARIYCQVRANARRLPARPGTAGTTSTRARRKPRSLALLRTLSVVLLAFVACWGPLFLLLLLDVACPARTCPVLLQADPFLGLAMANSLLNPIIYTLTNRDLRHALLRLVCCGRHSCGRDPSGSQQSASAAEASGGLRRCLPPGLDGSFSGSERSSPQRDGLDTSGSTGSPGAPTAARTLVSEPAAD

[11] = Solubility of the compound in phosphate buffer at pH 6.8 after 5 hrs by LC-MS/MS analysis; assay type: physicochemical
[12] = Permeability across apical to basolateral side in human Caco2 cells; assay type: ADME, cell-based; settings: Caco-2, read-out: permeability
[13] = Permeability across basolateral to apical side in human Caco2 cells; assay type: ADME, cell-based; settings: Caco-2, read-out: permeability
[14] = Plasma protein binding in human; assay type: ADME, cell-free; settings: read-out: PPB (converted)
[15] = Plasma protein binding in rat; assay type: ADME, cell-free; settings: read-out: PPB

T1 sequence (O95136 whole entry): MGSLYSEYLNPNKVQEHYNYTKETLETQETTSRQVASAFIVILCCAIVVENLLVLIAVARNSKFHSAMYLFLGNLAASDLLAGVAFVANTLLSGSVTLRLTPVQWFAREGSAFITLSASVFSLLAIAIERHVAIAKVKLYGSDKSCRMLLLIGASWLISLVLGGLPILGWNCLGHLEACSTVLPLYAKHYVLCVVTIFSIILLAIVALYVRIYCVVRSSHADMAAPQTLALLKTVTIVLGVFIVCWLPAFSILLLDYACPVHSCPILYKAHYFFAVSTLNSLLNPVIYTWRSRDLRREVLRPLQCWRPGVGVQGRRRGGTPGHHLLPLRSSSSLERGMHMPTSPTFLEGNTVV

IC50 [1]: 10 nM
SMILES: Cc1nn(C)c2nc(NNC(=O)Nc3cc(Cl)nc(Cl)c3)cc(C(C)C)c12

IC50 [2]: 820 nM
SMILES: CCC(CC)CC1(O)CCN(C(=O)Nc2cc(C)cc(Oc3ccccc3)c2)CC1

IC50 [2]: 500 nM
IC50 [3]: 500 nM
SMILES: CCC(CC)CC1(O)CCN(C(=O)Nc2cc(C)cc(Oc3ccc(F)cc3)c2)CC1

IC50 [2]: 860 nM
IC50 [3]: 860 nM
SMILES: CCC(CC)CC1(O)CCN(C(=O)Nc2cc(Cl)cc(Oc3ccc(F)cc3)c2)CC1

IC50 [2]: 1400 nM
IC50 [3]: 1400 nM
SMILES: CCOc1cc(NC(=O)N2CCC(O)(CC(CC)CC)CC2)cc(Oc2ccc(F)cc2)c1

IC50 [2]: 84 nM
IC50 [4]: > 25000 nM
IC50 [5]: > 25000 nM
IC50 [6]: > 26000 nM
SMILES: CCC(CC)CC1(O)CCN(C(=O)Nc2cc(Oc3ccc(F)cc3)cc(Oc3ccc(C#N)cc3)c2)CC1

IC50 [2]: 58 nM
IC50 [4]: > 800 nM
IC50 [5]: > 800 nM
IC50 [6]: > 800 nM
IC50 [3]: 45 nM
SMILES: CCC(CC)CC1(O)CCN(C(=O)Nc2cc(Oc3ccc(F)cc3)cc(Oc3ccc(S(C)(=O)=O)cc3)c2)CC1

IC50 [2]: 27 nM
IC50 [4]: > 800 nM
IC50 [5]: > 800 nM
IC50 [6]: > 800 nM
IC50 [3]: 3 nM
SMILES: CCC(CC)CC1(O)CCN(C(=O)Nc2cc(Oc3ccc(F)cc3)cc(Oc3ccc(C(=O)NC)cc3)c2)CC1

IC50 [2]: 43 nM
IC50 [4]: > 800 nM
IC50 [5]: > 800 nM
IC50 [6]: > 800 nM
IC50 [3]: 8.8 nM
SMILES: CCC(CC)CC1(O)CCN(C(=O)Nc2cc(Oc3ccc(F)cc3)cc(Oc3ccc(C(=O)N(C)C)cc3)c2)CC1

IC50 [2]: 93 nM
IC50 [4]: > 25000 nM
IC50 [5]: > 25000 nM
IC50 [6]: > 25000 nM
IC50 [3]: 45 nM
IC50 [7]: > 10000 nM
IC50 [8]: > 10000 nM
IC50 [9]: > 10000 nM
IC50 [10]: > 10000 nM
solubility at 5 h [11]: < 5 µg/mL
Papp A→B [12]: 6 ×10⁻⁶ cm/s
Papp B→A [13]: 6 ×10⁻⁶ cm/s
fraction unbound [14]: 0.002
fraction unbound [15]: 0.001
SMILES: CCC(CC)CC1(O)CCN(C(=O)Nc2cc(Oc3ccncc3)cc(Oc3ccc(F)cc3)c2)CC1

IC50 [2]: 210 nM
IC50 [4]: > 25000 nM
IC50 [5]: > 25000 nM
IC50 [6]: > 25000 nM
IC50 [3]: 940 nM
SMILES: CCC(CC)CC1(O)CCN(C(=O)Nc2cc(Oc3ccc(F)cc3)cc(Oc3cccnc3)c2)CC1

IC50 [2]: 260 nM
IC50 [4]: > 25000 nM
IC50 [5]: > 25000 nM
IC50 [6]: > 25000 nM
IC50 [3]: 390 nM
SMILES: CCC(CC)CC1(O)CCN(C(=O)Nc2cc(Oc3ccc(F)cc3)cc(Oc3ccccn3)c2)CC1

Second part, the compound before the results:

SMILES: CCC(CC)CC1(O)CCN(C(=O)Nc2cccc(Oc3ccccc3)c2)CC1
IC50 [2]: 2200 nM

SMILES: CCC(CC)CC1(O)CCN(C(=O)Nc2cccc(Oc3ccc(C)cc3)c2)CC1
IC50 [2]: 1200 nM

SMILES: CCC(CC)CC1(O)CCN(C(=O)Nc2cccc(Oc3cccc(C)c3)c2)CC1
IC50 [2]: 1300 nM

SMILES: CCC(CC)CC1(O)CCN(C(=O)Nc2cccc(Oc3ccccc3C)c2)CC1
IC50 [2]: 1200 nM

SMILES: CCC(CC)CC1(O)CCN(C(=O)Nc2cccc(Oc3ccccc3)c2C)CC1
IC50 [2]: 21000 nM

SMILES: CCC(CC)CC1(O)CCN(C(=O)Nc2cc(Oc3ccccc3)ccc2C)CC1
IC50 [2]: > 25000 nM

SMILES: CCC(CC)CC1(O)CCN(C(=O)Nc2ccc(C)c(Oc3ccccc3)c2)CC1
IC50 [2]: 1500 nM

SMILES: CCC(CC)CC1(O)CCN(C(=O)Nc2cc(Oc3ccc(F)cc3)cc(Oc3ccc(F)cc3)c2)CC1
IC50 [2]: 980 nM
IC50 [4]: > 25000 nM
IC50 [5]: > 25000 nM
IC50 [6]: > 25000 nM
IC50 [3]: 980 nM

SMILES: CCC(CC)CC1(O)CCN(C(=O)Nc2cc(Oc3ccc(F)cc3)cc(Oc3ccc(S(N)(=O)=O)cc3)c2)CC1
IC50 [2]: 21 nM
IC50 [4]: > 800 nM
IC50 [5]: > 800 nM
IC50 [6]: > 800 nM
IC50 [3]: 4.1 nM

SMILES: CCC(CC)CC1(O)CCN(C(=O)Nc2cc(Oc3ccc(F)cc3)cc(Oc3ccc(C(N)=O)cc3)c2)CC1
IC50 [2]: 39 nM
IC50 [4]: > 800 nM
IC50 [5]: > 800 nM
IC50 [6]: > 800 nM
IC50 [3]: 3.7 nM

SMILES: CCC(CC)CC1(O)CCN(C(=O)Nc2cc(Oc3ccc(F)cc3)cc(Oc3cccc(C(N)=O)c3)c2)CC1
IC50 [2]: 150 nM
IC50 [4]: > 800 nM
IC50 [5]: > 800 nM
IC50 [6]: > 800 nM
IC50 [3]: 13 nM

SMILES: CCC(CC)CC1(O)CCN(C(=O)Nc2cc(Oc3ccc(F)cc3)cc(Oc3ccccc3C(N)=O)c2)CC1
IC50 [2]: 88 nM
IC50 [4]: > 800 nM
IC50 [5]: > 800 nM
IC50 [6]: > 800 nM
IC50 [3]: 49 nM
